Laboratory results published in PMC4280904 (Journal of Veterinary Pharmacology and Therapeutics, 2014).
Several values for one entry are separate records, joined by “and”; a condition that tells them apart may be missing. Identical values can stand only once. Like-named read-outs stand apart in the source and are kept apart here.

Assays:
CYP2C9 = CYP2C9 (Homo sapiens, UniProt P11712); assay: In vitro enzyme inhibition, recombinant CYP, fluorescent metabolites
plasma protein [1] = assay: In vitro plasma protein binding; format: in vitro ADME; details: male, human
plasma proteins = assay: Reversibility of protein binding; format: in vitro ADME; details: human plasma, incubation up to 2 h at 37 °C, TCA precipitation
NAT1 = assay: In vivo enzyme induction: N-acetyltransferase, p-aminobenzoic acid; design: species or system Wistar rats; details: rats, 3–100 mg/kg p.o. once daily 7 days
[2] = ref Heinecke & Thiel, 2001; cited from earlier work
CYP2A = assay: In vivo enzyme induction: ethoxycoumarin O-deethylase; design: species or system Wistar rats; details: rats, 3–100 mg/kg p.o. once daily 7 days
CYP2E1 = assay: In vivo enzyme induction: nitrophenol hydroxylase; design: species or system Wistar rats; details: rats, 3–100 mg/kg p.o. once daily 7 days
CYP3A = assay: In vivo enzyme induction: erythromycin N-demethylase; design: species or system Wistar rats; details: rats, 3–100 mg/kg p.o. once daily 7 days
[3] = system: pentylenetetrazole-induced convulsions; details: dogs, ref Löscher et al., 2004, cited from earlier work
plasma protein [4] = assay: In vitro plasma protein binding; format: in vitro ADME, rats; details: rat
CYP3A4 = CYP3A4 (Homo sapiens, UniProt P08684); assay: In vitro enzyme inhibition, recombinant CYP, fluorescent metabolites; format: in vitro ADME; details: up to the highest concentration tested (100 μM)
CYP1A1 = CYP1A1 (Homo sapiens, UniProt P04798); assay: as above; format: in vitro ADME
[5] = ref Heinecke & Thiel, 2001; cited from earlier work; remark: listed apart in the source
CYP2A6 = CYP2A6 (Homo sapiens, UniProt P11509); assay: In vitro enzyme inhibition, recombinant CYP, fluorescent metabolites; format: in vitro ADME
[6] = Dose linearity of imepitoin after oral dosing; format: in vivo, beagle dogs; details: for Cmax / Tmax: both, beagle, dog, plasma, po; for Tlag obs: enteric-coated capsules, mean ± SEM, n=6
CYP2C8 = CYP2C8 (Homo sapiens, UniProt P10632); assay: In vitro enzyme inhibition, recombinant CYP, fluorescent metabolites; format: in vitro ADME; details: up to the highest concentration tested (100 μM)
CYP2D1 = assay: In vivo enzyme induction: dextromethorphan O-demethylase; design: species or system Wistar rats; details: rats, 3–100 mg/kg p.o. once daily 7 days
[7] = system: canine idiopathic epilepsy; details: epileptic dogs, dose escalation; ref Löscher et al., 2004; Rieck et al., 2006; cited from earlier work
CYP2D6 = CYP2D6 (Homo sapiens, UniProt P10635); assay: In vitro enzyme inhibition, recombinant CYP, fluorescent metabolites; format: in vitro ADME
[8] = dogs, 5 mg/kg, at time of seizure induction; ref Löscher et al., 2004; cited from earlier work
[9] = Excretion balance of [14C] imepitoin after oral and intravenous dosing; format: in vivo, beagle dogs; details: for Fraction excreted, Total / Fraction excreted, Urine + Cage wash / Fraction excreted, Feces: cumulative radioactivity, mean (CV %)
plasma protein [10] = assay: In vivo plasma protein binding in dogs dosed with [14C] imepitoin; format: in vitro ADME, beagle dogs
CYP2C19 = CYP2C19 (Homo sapiens, UniProt P33261); assay: In vitro enzyme inhibition, recombinant CYP, fluorescent metabolites; format: in vitro ADME
NAT2 = assay: In vivo enzyme induction: N-acetyltransferase, procainamide; design: species or system Wistar rats; details: rats, 3–100 mg/kg p.o. once daily 7 days
plasma protein [11] = assay: In vitro plasma protein binding; format: in vitro ADME, beagle dogs; details: beagle, dog, heparinized plasma, mean ± SEM, n=3
CYP1A2 = CYP1A2 (Homo sapiens, UniProt P05177); assay: In vitro enzyme inhibition, recombinant CYP, fluorescent metabolites; format: in vitro ADME
Sequence of CYP1A2 (P05177 whole entry): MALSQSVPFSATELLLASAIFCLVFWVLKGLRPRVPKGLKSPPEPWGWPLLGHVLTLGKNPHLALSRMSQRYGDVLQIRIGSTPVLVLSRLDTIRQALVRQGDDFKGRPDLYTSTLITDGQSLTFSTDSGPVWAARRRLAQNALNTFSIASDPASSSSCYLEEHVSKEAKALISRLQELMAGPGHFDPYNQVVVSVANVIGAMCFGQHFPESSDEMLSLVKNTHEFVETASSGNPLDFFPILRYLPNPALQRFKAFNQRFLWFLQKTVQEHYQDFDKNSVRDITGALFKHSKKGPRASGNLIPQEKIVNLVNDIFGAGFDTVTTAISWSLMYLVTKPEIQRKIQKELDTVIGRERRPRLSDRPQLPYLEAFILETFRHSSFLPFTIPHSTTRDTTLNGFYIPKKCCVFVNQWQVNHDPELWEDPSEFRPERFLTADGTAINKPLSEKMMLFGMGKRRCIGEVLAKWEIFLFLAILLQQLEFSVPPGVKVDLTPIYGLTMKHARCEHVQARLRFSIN

Sequence of CYP2A6 (P11509 whole entry): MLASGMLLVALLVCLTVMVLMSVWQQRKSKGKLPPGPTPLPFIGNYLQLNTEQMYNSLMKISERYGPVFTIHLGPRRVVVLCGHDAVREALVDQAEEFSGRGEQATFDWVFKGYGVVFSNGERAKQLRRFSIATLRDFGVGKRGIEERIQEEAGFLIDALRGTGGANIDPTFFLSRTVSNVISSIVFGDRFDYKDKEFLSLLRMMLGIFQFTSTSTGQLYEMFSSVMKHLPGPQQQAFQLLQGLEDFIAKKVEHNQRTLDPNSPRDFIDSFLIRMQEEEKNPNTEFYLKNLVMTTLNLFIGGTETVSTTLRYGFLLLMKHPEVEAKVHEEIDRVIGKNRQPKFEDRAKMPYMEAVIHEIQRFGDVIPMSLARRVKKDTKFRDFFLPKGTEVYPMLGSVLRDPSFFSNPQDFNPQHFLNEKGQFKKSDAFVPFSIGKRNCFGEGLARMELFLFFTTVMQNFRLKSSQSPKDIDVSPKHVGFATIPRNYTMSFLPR
Sequence of CYP2D6 (P10635 whole entry): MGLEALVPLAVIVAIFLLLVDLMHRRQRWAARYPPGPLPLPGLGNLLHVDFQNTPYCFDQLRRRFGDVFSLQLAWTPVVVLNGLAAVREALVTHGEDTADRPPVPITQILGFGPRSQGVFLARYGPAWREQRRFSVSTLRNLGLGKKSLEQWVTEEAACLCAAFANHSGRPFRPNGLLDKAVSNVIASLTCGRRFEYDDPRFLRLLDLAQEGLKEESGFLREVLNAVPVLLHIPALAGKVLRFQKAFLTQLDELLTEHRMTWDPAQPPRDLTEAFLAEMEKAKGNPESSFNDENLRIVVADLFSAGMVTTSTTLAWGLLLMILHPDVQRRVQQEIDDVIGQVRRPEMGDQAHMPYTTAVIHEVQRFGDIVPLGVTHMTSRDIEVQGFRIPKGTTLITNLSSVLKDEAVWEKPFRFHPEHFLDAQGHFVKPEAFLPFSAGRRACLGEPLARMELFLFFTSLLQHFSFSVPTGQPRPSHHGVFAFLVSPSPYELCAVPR
Sequence of CYP2C9 (P11712 whole entry): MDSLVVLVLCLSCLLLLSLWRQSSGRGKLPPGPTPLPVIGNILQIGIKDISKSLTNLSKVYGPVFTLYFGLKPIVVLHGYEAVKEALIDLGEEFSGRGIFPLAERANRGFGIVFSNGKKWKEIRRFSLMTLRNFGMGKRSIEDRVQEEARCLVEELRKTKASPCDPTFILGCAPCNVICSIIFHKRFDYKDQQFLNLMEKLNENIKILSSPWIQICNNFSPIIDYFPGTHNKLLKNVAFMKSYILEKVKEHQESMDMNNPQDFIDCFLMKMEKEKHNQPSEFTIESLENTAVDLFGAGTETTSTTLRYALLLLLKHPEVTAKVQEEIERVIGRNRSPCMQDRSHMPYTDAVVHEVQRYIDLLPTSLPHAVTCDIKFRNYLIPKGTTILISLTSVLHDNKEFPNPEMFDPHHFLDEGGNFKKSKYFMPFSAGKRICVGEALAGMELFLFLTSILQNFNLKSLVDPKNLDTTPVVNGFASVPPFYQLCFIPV
Sequence of CYP2C19 (P33261 whole entry): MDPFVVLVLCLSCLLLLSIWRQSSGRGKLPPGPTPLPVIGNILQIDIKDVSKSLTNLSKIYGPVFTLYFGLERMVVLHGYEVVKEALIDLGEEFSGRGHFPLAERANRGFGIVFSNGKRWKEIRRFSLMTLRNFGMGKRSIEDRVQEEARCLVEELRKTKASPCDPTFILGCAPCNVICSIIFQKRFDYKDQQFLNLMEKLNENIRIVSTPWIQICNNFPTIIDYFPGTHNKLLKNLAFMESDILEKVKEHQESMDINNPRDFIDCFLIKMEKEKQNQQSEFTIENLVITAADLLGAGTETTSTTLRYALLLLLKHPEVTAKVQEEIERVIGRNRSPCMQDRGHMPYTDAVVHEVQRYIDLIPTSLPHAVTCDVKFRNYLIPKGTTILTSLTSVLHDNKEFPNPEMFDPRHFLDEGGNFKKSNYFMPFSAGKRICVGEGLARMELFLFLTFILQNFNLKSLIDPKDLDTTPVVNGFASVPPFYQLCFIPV
Sequence of CYP2C8 (P10632 whole entry): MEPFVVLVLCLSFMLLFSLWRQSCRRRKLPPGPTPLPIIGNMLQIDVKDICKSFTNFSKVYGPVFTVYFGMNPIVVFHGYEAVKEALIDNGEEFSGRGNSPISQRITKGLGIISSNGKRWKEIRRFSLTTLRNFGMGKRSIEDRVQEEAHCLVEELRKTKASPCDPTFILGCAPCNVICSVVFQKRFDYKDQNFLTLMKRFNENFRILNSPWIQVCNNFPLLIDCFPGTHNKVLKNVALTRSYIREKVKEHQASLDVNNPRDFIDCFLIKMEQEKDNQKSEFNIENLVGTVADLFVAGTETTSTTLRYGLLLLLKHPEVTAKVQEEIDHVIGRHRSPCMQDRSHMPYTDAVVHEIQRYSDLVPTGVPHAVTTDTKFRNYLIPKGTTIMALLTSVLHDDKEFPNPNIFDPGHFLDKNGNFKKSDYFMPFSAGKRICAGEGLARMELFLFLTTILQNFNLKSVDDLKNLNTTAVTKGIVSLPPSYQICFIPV
Sequence of CYP3A4 (P08684 whole entry): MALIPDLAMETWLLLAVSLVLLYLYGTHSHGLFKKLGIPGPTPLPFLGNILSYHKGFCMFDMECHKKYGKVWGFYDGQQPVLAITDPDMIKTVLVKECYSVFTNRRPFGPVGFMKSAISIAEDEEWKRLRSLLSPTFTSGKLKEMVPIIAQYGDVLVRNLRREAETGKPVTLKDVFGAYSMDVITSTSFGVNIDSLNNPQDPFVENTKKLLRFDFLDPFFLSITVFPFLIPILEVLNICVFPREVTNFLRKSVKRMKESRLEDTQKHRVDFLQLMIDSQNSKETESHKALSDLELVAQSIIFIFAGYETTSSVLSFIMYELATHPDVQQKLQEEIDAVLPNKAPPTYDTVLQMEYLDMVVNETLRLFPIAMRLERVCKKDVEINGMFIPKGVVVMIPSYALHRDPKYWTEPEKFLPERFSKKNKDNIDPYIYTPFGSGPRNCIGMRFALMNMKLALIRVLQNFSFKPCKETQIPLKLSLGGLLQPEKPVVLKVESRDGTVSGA
Sequence of CYP1A1 (P04798 whole entry): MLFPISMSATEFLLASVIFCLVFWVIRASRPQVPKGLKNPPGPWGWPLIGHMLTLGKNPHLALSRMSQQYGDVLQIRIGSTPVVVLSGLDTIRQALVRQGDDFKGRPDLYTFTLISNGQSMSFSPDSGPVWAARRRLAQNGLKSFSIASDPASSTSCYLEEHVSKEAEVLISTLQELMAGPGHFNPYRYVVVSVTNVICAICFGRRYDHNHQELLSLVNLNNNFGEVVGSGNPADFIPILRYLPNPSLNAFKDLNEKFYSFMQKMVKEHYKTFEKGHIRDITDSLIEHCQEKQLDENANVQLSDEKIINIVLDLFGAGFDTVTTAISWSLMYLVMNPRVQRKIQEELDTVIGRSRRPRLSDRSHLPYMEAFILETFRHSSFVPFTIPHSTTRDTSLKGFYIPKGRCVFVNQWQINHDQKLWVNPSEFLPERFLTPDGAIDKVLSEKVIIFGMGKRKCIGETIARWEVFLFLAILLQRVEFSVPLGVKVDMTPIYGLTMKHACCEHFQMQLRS

Structure (SMILES): O=C1N=C(N2CCOCC2)CN1c1ccc(Cl)cc1 [Imepitoin, 1-(4-chlorophenyl)-4-morpholino-imidazolin-2-one]
- IC50 (CYP2C9): > 100 µM
- Inhibition of the specific cytochrome P450 isoform IC50, 2C9 (CYP2C9; recombinant human CYP2C9): did not influence
- fraction unbound at 15 min, 0.1 μg/mL (plasma protein [1]; heparinized plasma): 0.43
- fraction unbound at 15 min, 1 μg/mL (plasma protein [1]; heparinized plasma): 0.41
- fraction unbound at 15 min, 10 μg/mL (plasma protein [1]; heparinized plasma): 0.43
- fraction unbound at 15 min (plasma protein [1]; plasma (heparinized)): 0.41 to 0.43
- radioactivity found in the washed precipitate (covalent binding) (plasma proteins): less than 0.5%
- induction of NAT1 (NAT1): did not induce
- solubility in acidic media such as gastric fluid [2]: more readily soluble in acidic media
- solubility in aqueous media [2]: very low solubility in aqueous media
- induction of CYP2A (CYP2A): did not induce
- induction of CYP2E1 (CYP2E1): did not induce
- induction of CYP3A (CYP3A): did not induce
- elevation of threshold for pentylenetetrazole-induced convulsions ([3]; 5 mg/kg orally twice daily, 5 mg/kg): significant increase
- elevation of threshold for pentylenetetrazole-induced convulsions ([3]; 40 mg/kg twice daily, 40 mg/kg): much stronger elevation of threshold
- elevation of threshold for pentylenetetrazole-induced convulsions ([3]; 40 mg/kg twice daily, listed as imepitoin, 40 mg/kg): greatly enhanced the drug-induced effect
- development of tolerance toward anticonvulsant activity ([3]; repeated administration for 28 days): no development of tolerance
- fraction unbound at 15 min, 0.1 μg/mL (plasma protein [4]; heparinized plasma): 0.49
- fraction unbound at 15 min, 1 μg/mL (plasma protein [4]; heparinized plasma): 0.5 ± 0.0064
- fraction unbound at 15 min, 10 μg/mL (plasma protein [4]; heparinized plasma): 0.5 ± 0.011
- fraction unbound at 15 min (plasma protein [4]; plasma (heparinized, pool of five fasted animals)): 0.49 to 0.5
- influence on activity of CYP3A4 (CYP3A4): did not influence
- IC50 (CYP1A1): 55 µM
- lipophilicity [5]: high lipophilicity
- IC50 (CYP2A6): > 100 µM
- Inhibition of the specific cytochrome P450 isoform IC50, 2A6 (CYP2A6; recombinant human CYP2A6): did not influence
- Cmax ([6]; 10 mg/kg): 1.81 ± 0.92 µg/mL
- Tmax ([6]; 10 mg/kg): 8.67 ± 3.1 h
- Cmax ([6]; 20 mg/kg): 3.5 ± 1.07 µg/mL
- Tmax ([6]; 20 mg/kg): 10.7 ± 4 h
- Cmax ([6]; 50 mg/kg): 6.41 ± 1.75 µg/mL
- Tmax ([6]; 50 mg/kg): 18 ± 3.8 h
- Tmax ([6]; 100 mg/kg): 8.67 ± 3.1 h
- Tlag obs ([6]; single dose 10 mg/kg p.o.): 3.67 ± 0.92 h
- Tlag obs ([6]; single dose 20 mg/kg p.o.): 5.67 ± 0.95 h
- Tlag obs ([6]; single dose 50 mg/kg p.o.): 4.17 ± 1.05 h
- Tlag obs ([6]; single dose 100 mg/kg p.o.): 2.25 ± 0.94 h
- influence on activity of CYP2C8 (CYP2C8): did not influence
- induction of CYP2D1 (CYP2D1): did not induce
- anti-epileptic activity versus historical phenobarbital data [7]: comparable anti-epileptic activity
- tolerability versus phenobarbital [7]: clearly superior to phenobarbital
- IC50 (CYP2D6): > 100 µM
- Inhibition of the specific cytochrome P450 isoform IC50, 2D6 (CYP2D6; recombinant human CYP2D6): did not influence
- peak plasma concentration [8]: 1400 to 1700 ng/mL
- tolerability, clinical adverse events ([9]; 20 mg/kg p.o. (3 male, 3 female dogs) and 1 mg/kg i.v. (3 female dogs)): well tolerated
- total radioactivity excreted urinary ([9]; after oral dosing, range males/females): 27–38%
- Fraction excreted, Total ([9]; females, 1 mg/kg i.v., 0–8 h): 30.62 (n < 3) % of intravenous dose
- Fraction excreted, Urine + Cage wash ([9]; females, 1 mg/kg i.v., 0–8 h): 30.62 (n < 3) % of intravenous dose
- Fraction excreted, Feces ([9]; females, 1 mg/kg i.v., 0–24 h): 54.74 (n < 3) % of intravenous dose
- Fraction excreted, Total ([9]; females, 1 mg/kg i.v., 0–24 h): 74.07 (33.4) % of intravenous dose
- Fraction excreted, Urine + Cage wash ([9]; females, 1 mg/kg i.v., 0–24 h): 37.58 (19.1) % of intravenous dose
- Fraction excreted, Feces ([9]; females, 1 mg/kg i.v., 0–48 h): 68.33 (n < 3) % of intravenous dose
- Fraction excreted, Total ([9]; females, 1 mg/kg i.v., 0–48 h): 85.43 (37.2) % of intravenous dose
- Fraction excreted, Urine + Cage wash ([9]; females, 1 mg/kg i.v., 0–48 h): 39.87 (19.9) % of intravenous dose
- Fraction excreted, Total ([9]; females, 1 mg/kg i.v., 0–264 h): 104.43 (4.4) % of intravenous dose
- Fraction excreted, Feces ([9]; females, 20 mg/kg p.o., 0–8 h): 0.09 (n < 3) % of oral dose
- Fraction excreted, Total ([9]; females, 20 mg/kg p.o., 0–8 h): 8.04 (n < 3) % of oral dose
- Fraction excreted, Urine + Cage wash ([9]; females, 20 mg/kg p.o., 0–8 h): 7.95 (n < 3) % of oral dose
- Fraction excreted, Feces ([9]; females, 20 mg/kg p.o., 0–24 h): 40.62 (n < 3) % of oral dose
- Fraction excreted, Total ([9]; females, 20 mg/kg p.o., 0–24 h): 63.58 (n < 3) % of oral dose
- Fraction excreted, Urine + Cage wash ([9]; females, 20 mg/kg p.o., 0–24 h): 22.96 (n < 3) % of oral dose
- Fraction excreted, Feces ([9]; females, 20 mg/kg p.o., 0–48 h): 45.64 (22.0) % of oral dose
- Fraction excreted, Total ([9]; females, 20 mg/kg p.o., 0–48 h): 76.52 (20.8) % of oral dose
- Fraction excreted, Urine + Cage wash ([9]; females, 20 mg/kg p.o., 0–48 h): 30.88 (23.3) % of oral dose
- Fraction excreted, Total ([9]; females, 20 mg/kg p.o., 0–264 h): 93.84 (8.4) % of oral dose
- Fraction excreted, Total ([9]; males, 20 mg/kg p.o., 0–8 h): 0.58 (n < 3) % of oral dose
- Fraction excreted, Urine + Cage wash ([9]; males, 20 mg/kg p.o., 0–8 h): 0.58 (n < 3) % of oral dose
- Fraction excreted, Feces ([9]; males, 20 mg/kg p.o., 0–24 h): 34.41 (92.2) % of oral dose
- Fraction excreted, Total ([9]; males, 20 mg/kg p.o., 0–24 h): 51.11 (66.2) % of oral dose
- Fraction excreted, Urine + Cage wash ([9]; males, 20 mg/kg p.o., 0–24 h): 16.70 (20.9) % of oral dose
- Fraction excreted, Feces ([9]; males, 20 mg/kg p.o., 0–48 h): 75.65 (12.3) % of oral dose
- Fraction excreted, Total ([9]; males, 20 mg/kg p.o., 0–48 h): 97.51 (6.4) % of oral dose
- Fraction excreted, Urine + Cage wash ([9]; males, 20 mg/kg p.o., 0–48 h): 21.86 (20.5) % of oral dose
- Fraction excreted, Total ([9]; males, 20 mg/kg p.o., 0–264 h): 104.74 (2.8) % of oral dose
- total radioactivity excreted within 48 h ([9]; urine + feces, range over dosing groups): 76–97% and 76.5–97.5%
- in vivo plasma protein binding (plasma protein [10]; 2 h after 20 mg/kg p.o. or 1 mg/kg i.v.): 59–69%
- in vivo plasma protein binding (plasma protein [10]; 8 h after 20 mg/kg p.o. or 1 mg/kg i.v.): 62–72%
- In vivo protein binding (plasma protein [10]; female dogs, 1 mg/kg i.v., 2 h after dosing, mean ± SEM): 59 ± 0.69%
- In vivo protein binding (plasma protein [10]; female dogs, 1 mg/kg i.v., 4 h after dosing, mean ± SEM): 66 ± 2.66%
- In vivo protein binding (plasma protein [10]; female dogs, 1 mg/kg i.v., 8 h after dosing, mean ± SEM): 72 ± 1.33%
- In vivo protein binding (plasma protein [10]; female dogs, 20 mg/kg p.o., 2 h after dosing): 69 (n < 3) %
- In vivo protein binding (plasma protein [10]; female dogs, 20 mg/kg p.o., 4 h after dosing, mean ± SEM): 66 ± 0.69%
- In vivo protein binding (plasma protein [10]; female dogs, 20 mg/kg p.o., 8 h after dosing, mean ± SEM): 62 ± 7.68%
- In vivo protein binding (plasma protein [10]; male dogs, 20 mg/kg p.o., 2 h after dosing): 60 (n < 3) %
- In vivo protein binding (plasma protein [10]; male dogs, 20 mg/kg p.o., 4 h after dosing, mean ± SEM): 63 ± 1.62%
- In vivo protein binding (plasma protein [10]; male dogs, 20 mg/kg p.o., 8 h after dosing, mean ± SEM): 67 ± 2.71%
- IC50 (CYP2C19): > 100 µM
- Inhibition of the specific cytochrome P450 isoform IC50, 2C19 (CYP2C19; recombinant human CYP2C19): did not influence
- induction of NAT2 (NAT2): did not induce
- fraction unbound at 15 min, 10 μg/mL (plasma protein [11]): 0.44
- IC50 (CYP1A2): > 100 µM
- Inhibition of the specific cytochrome P450 isoform IC50, 1A2 (CYP1A2; recombinant human CYP1A2): did not influence
